Series [1] relates to Enterococcus faecium. In words: Antibacterial activity against vancomycin-resistant Enterococcus faecium incubated for 6 to 8 hrs by microplate Alamar Blue assay. In kind it is functional. The note with it: time 6-8 hrs. In general terms: Alamar Blue is a resazurin reagent that responds to reducing activity.
Another series deals with MCF7. In words: Cytotoxicity against human MCF7 cells assessed as cell growth inhibition incubated for 48 hrs by MTT assay. In kind it is functional, cell-based. The note with it: MCF7, 48 h. (Formazan colour is commonly taken as a measure of viable cells.)
Another series deals with HeLa. In words: Cytotoxicity against human HeLa cells assessed as cell growth inhibition incubated for 48 hrs by MTT assay. It is filed as functional, cell-based.
Series [2] in a line: Cytotoxicity against African green monkey Vero cells assessed as cell growth inhibition incubated for 48 hrs by MTT assay. In kind it is toxicity, cell-based. The note with it: African green monkey (Chlorocebus sabaeus).
The next series relates to A549. In words: Cytotoxicity against human A549 cells assessed as cell growth inhibition incubated for 48 hrs by MTT assay. In kind it is functional, cell-based. The note with it: A549, 48 h.
The subject of a further series is HepG2. In words: Cytotoxicity against human HepG2 cells assessed as cell growth inhibition incubated for 48 hrs by MTT assay. In kind it is functional, cell-based. The note with it: HepG2, 48 h.
In series [3] the test system is Staphylococcus aureus. In words: Antibacterial activity against Staphylococcus aureus ATCC 6538 incubated for 6 to 8 hrs by microplate Alamar Blue assay. In kind it is functional. The note with it: time 6-8 hrs.
Series [4] has as its system Staphylococcus aureus. In words: Antibacterial activity against methicillin-resistant Staphylococcus aureus incubated for 6 to 8 hrs by microplate Alamar Blue assay. It is filed as functional. The note with it: time 6-8 hrs.
The subject of series [5] is Enterococcus faecium. In words: Antibacterial activity against Enterococcus faecium incubated for 6 to 8 hrs by microplate Alamar Blue assay. In kind it is functional. The note with it: time 6-8 hrs.
Series [6] in a line: Selectivity index, ratio of IC50 for cytotoxicity against African green monkey Vero cells to IC50 for cytotoxicity against human A549 cells. In kind it is toxicity, cell-based. The note with it: Vero cells and A549 cells, read-out: Ratio IC50.

As usually defined, the MIC is the lowest concentration that inhibits growth of the organism. By IC50 is commonly meant the concentration needed to halve the response being measured.

Structures are written as SMILES. ≈ marks a conversion by molar mass, not a printed value. Counter-ions that a name gives are not always drawn.

In the case of `COc1cc(C)c(-c2cc(OC)cc3cc4c(c(O)c23)C(=O)c2c(cc(O)c(Br)c2O)C4(C)C)c(O)c1`, the MIC amounted to 2.5 µg/mL (≈ 4.42 µM) against Enterococcus faecium [1], 1.3 µg/mL (≈ 2.3 µM) against Staphylococcus aureus [3], 1.3 µg/mL (≈ 2.3 µM) against Staphylococcus aureus [4] and 1.3 µg/mL (≈ 2.3 µM) against Enterococcus faecium [5]. Further, the IC50 with MCF7 was found to be 8.9 µM; in the series with HeLa it was 3.6 µM; in the series with A549, 3.3 µM; in the series with HepG2, 5.2 µM. Besides, the IC50 at 48 h in series [2] is 9 µM.

Take `COc1cc(C)c(-c2cc(O)c(Cl)c3cc4c(c(O)c23)C(=O)c2c(cc(OC)c(Cl)c2O)C4(C)C)c(O)c1`: the MIC with Enterococcus faecium [1], against Staphylococcus aureus [3], in the series on Staphylococcus aureus [4] and in the series on Enterococcus faecium [5] was 2.5 µg/mL (≈ 4.5 µM) in each case.

For the molecule `COc1cc(C)c(-c2cc(O)c(Br)c3cc4c(c(O)c23)C(=O)c2c(cc(OC)c(Br)c2O)C4(C)C)c(O)c1`, the MIC is 2.5 µg/mL (≈ 3.88 µM) against Enterococcus faecium [1], 1.3 µg/mL (≈ 2.02 µM) against Staphylococcus aureus [3], 1.3 µg/mL (≈ 2.02 µM) in the series on Staphylococcus aureus [4] and 2.5 µg/mL (≈ 3.88 µM) in the series on Enterococcus faecium [5]. In addition, the IC50 in the series on MCF7 was determined as 4.6 µM; with HeLa, 1.7 µM; with A549 it was 2.8 µM; in the series on HepG2 it was 5.9 µM. Further, in series [2], the half-maximal inhibitory concentration (IC50) at 48 h was found to be 15.1 µM.

Consider `COc1cc(C)c(-c2cc(O)cc3cc4c(c(O)c23)C(=O)c2c(O)cc(OC)cc2C4(C)C)c(O)c1`, for which the MIC came out at 2.5 µg/mL (≈ 5.14 µM) in the series with Enterococcus faecium [1], 2.5 µg/mL (≈ 5.14 µM) against Staphylococcus aureus [3], 2.5 µg/mL (≈ 5.14 µM) against Staphylococcus aureus [4] and 1.3 µg/mL (≈ 2.67 µM) in the series with Enterococcus faecium [5]. Besides, the IC50 in the series with MCF7 is 16.5 µM; in the series with HeLa it was 6.5 µM; in the series with A549, 5.3 µM; in the series on HepG2, 7 µM. In addition, the IC50 at 48 h in series [2] came to 6.7 µM.

Consider `COc1cc(C)c(-c2cc(O)cc3cc4c(c(O)c23)C(=O)c2c(cc(OC)c(Br)c2O)C4(C)C)c(O)c1`, for which the MIC in the series on Enterococcus faecium [1] was 1.3 µg/mL (≈ 2.3 µM); against Staphylococcus aureus [3], 0.6 µg/mL (≈ 1.06 µM); in the series with Staphylococcus aureus [4], 0.6 µg/mL (≈ 1.06 µM); against Enterococcus faecium [5], 1.3 µg/mL (≈ 2.3 µM). The IC50 worked out at 3.1 µM in the series with MCF7, 4.1 µM with HeLa, 2.5 µM with A549 and 3.5 µM in the series on HepG2. Moreover, in series [2], the IC50 at 48 h was determined as 2.8 µM.

As for `COc1cc(C)c(C(=O)c2c(CC(C)=O)cc3c(c2O)C(=O)c2c(cc(OC)c(Br)c2OC)C3(C)C)c(OC)c1`, the IC50 with MCF7 is 12.3 µM; with HeLa, 12.6 µM; in the series with A549, 10.2 µM; in the series with HepG2, 13.6 µM. In series [2], the IC50 at 48 h was more than 50 µM. For the same molecule, the MIC in the series with Staphylococcus aureus [3], against Staphylococcus aureus [4] and against Enterococcus faecium [5] was more than 10 µg/mL in each case.

As for `COc1cc(-c2c(O)cc(OC)c(Cc3c(OC)cc(C)c(-c4cc(OC)cc5cc6c(c(O)c45)C(=O)c4c(O)cc(O)cc4C6(C)C)c3O)c2C)c2c(O)c3c(cc2c1)C(C)(C)c1cc(O)cc(O)c1C3=O`, the IC50 with MCF7, in the series with HeLa, in the series on A549 and in the series on HepG2 was more than 50 µM in each case. Also, in [2], the IC50 at 48 h was more than 50 µM. In addition, the MIC against Staphylococcus aureus [3], in the series on Staphylococcus aureus [4] and in the series on Enterococcus faecium [5] was more than 10 µg/mL each time.

On to `CN[C@H](CC(C)C)C(=O)N[C@H]1C(=O)N[C@@H](CC(N)=O)C(=O)N[C@H]2C(=O)N[C@H]3C(=O)N[C@H](C(=O)N[C@H](C(=O)O)c4cc(O)cc(O)c4-c4cc3ccc4O)[C@H](O)c3ccc(c(Cl)c3)Oc3cc2cc(c3O[C@@H]2O[C@H](CO)[C@@H](O)[C@H](O)[C@H]2O[C@H]2C[C@](C)(N)[C@H](O)[C@H](C)O2)Oc2ccc(cc2Cl)[C@H]1O` [VANCOMYCIN], for which the MIC in the series on Enterococcus faecium [1] is more than 40 µg/mL; in the series on Staphylococcus aureus [4], 0.6 µg/mL (≈ 0.414 µM); with Enterococcus faecium [5], 1.3 µg/mL (≈ 0.897 µM).

For `COc1cc(C)c(-c2cc(OC)cc3cc4c(c(O)c23)C(=O)c2c(cc(OC)c(Br)c2O)C4(C)C)c(O)c1`, the IC50 with MCF7 came to 7.9 µM; in the series with HeLa, 1.7 µM; in the series on A549, 3.3 µM; in the series on HepG2 it was 4.7 µM. For the same molecule, the IC50 at 48 h in series [2] amounted to 7.3 µM. For the same molecule, the MIC with Staphylococcus aureus [3], against Staphylococcus aureus [4] and against Enterococcus faecium [5] was more than 10 µg/mL in each case.

As for `COc1cccc2c1C(=O)c1c(O)c3c(c(O)c1C2=O)C[C@@](O)(C(=O)CO)C[C@@H]3O[C@H]1C[C@H](N)[C@H](O)[C@H](C)O1` [DOXORUBICIN HYDROCHLORIDE], the IC50 is 0.7 µM with A549 and 0.8 µM in the series on HepG2.

For the molecule `COc1cc(-c2c(O)cc(OC)c(OC)c2C)c2c(O)c3c(cc2c1)C(C)(C)c1cc(O)cc(O)c1C3=O`, the MIC against Enterococcus faecium [1], against Staphylococcus aureus [3], with Staphylococcus aureus [4] and in the series on Enterococcus faecium [5] was 5 µg/mL (≈ 9.68 µM) throughout. In addition, the IC50 turned out to be 12.3 µM with MCF7, 11.1 µM in the series with HeLa, 6.3 µM in the series with A549 and 4.8 µM in the series with HepG2. For the same molecule, in series [2], the IC50 at 48 h worked out at 4.5 µM.

As for `COc1cc(C)c(-c2cc(OC)c(Br)c3cc4c(c(O)c23)C(=O)c2c(O)cc(O)cc2C4(C)C)c(O)c1`, the MIC against Enterococcus faecium [1], in the series with Staphylococcus aureus [3], against Staphylococcus aureus [4] and against Enterococcus faecium [5] was 1.3 µg/mL (≈ 2.3 µM) each time. Moreover, the IC50 is 5.3 µM in the series on MCF7, 5.8 µM in the series on HeLa, 3.1 µM with A549 and 4.5 µM in the series on HepG2. Further, in [2], the IC50 at 48 h is 5.7 µM.

In the case of `COc1cc(C)c(-c2cc(OC)cc3cc4c(c(O)c23)C(=O)c2c(O)cc(OC)cc2C4(C)C)c(O)c1`, the IC50 in the series with MCF7 stood at 6.2 µM; in the series with HeLa, 6.7 µM; with A549, 4.6 µM; in the series on HepG2, 2.7 µM. Moreover, in series [2], the 50% inhibitory concentration (IC50) at 48 h worked out at 7.6 µM. In addition, the MIC against Staphylococcus aureus [3], in the series with Staphylococcus aureus [4] and in the series on Enterococcus faecium [5] was more than 10 µg/mL each time.

Consider `COc1cc(C)c(-c2cc(OC)cc3cc4c(c(O)c23)C(=O)c2c(OC)cc(OC)cc2C4(C)C)c(O)c1`, for which the IC50 was 9.2 µM in the series with MCF7, 7.7 µM with HeLa, 6 µM in the series on A549 and 5.8 µM with HepG2. For the same molecule, the IC50 at 48 h in series [2] was determined as 9 µM. Moreover, the MIC against Staphylococcus aureus [3], against Staphylococcus aureus [4] and in the series with Enterococcus faecium [5] was more than 10 µg/mL throughout.

As for `COc1cc(C)c(-c2cc(O)cc3cc4c(c(O)c23)C(=O)c2c(cc(OC)c(Br)c2OC)C4(C)C)c(O)c1`, the MIC in the series with Enterococcus faecium [1], in the series with Staphylococcus aureus [3], against Staphylococcus aureus [4] and against Enterococcus faecium [5] was 5 µg/mL (≈ 8.63 µM) in each case. Further, the IC50 with MCF7 turned out to be 8.6 µM; in the series on HeLa it was 5.1 µM; in the series on A549, 4.7 µM; in the series with HepG2 it was 5.7 µM. In series [2], the IC50 at 48 h came out at 5.8 µM.

Regarding `NC[C@H]1O[C@H](O[C@H]2[C@H](O)[C@@H](O[C@H]3O[C@H](CO)[C@@H](O)[C@H](N)[C@H]3O)[C@H](N)C[C@@H]2N)[C@H](O)[C@@H](O)[C@@H]1O` [KANAMYCIN], the MIC against Staphylococcus aureus [3] was determined as 1.3 µg/mL (≈ 2.68 µM).

With `COC1=CC(=O)C(c2cc(OC)cc3cc4c(c(O)c23)C(=O)c2c(O)cc(O)cc2C4(C)C)=C(C)C1=O`, the IC50 with MCF7 was determined as 9.6 µM; with HeLa it was 14.6 µM; in the series on A549 it was 8.9 µM; with HepG2, 12.4 µM. The IC50 at 48 h in [2] turned out to be 15.1 µM. The MIC in the series with Staphylococcus aureus [3], in the series with Staphylococcus aureus [4] and in the series with Enterococcus faecium [5] was more than 10 µg/mL each time.

Consider `COc1cc(C)c(-c2cc(OC)cc3cc4c(c(O)c23)C(=O)c2c(O)cc(O)cc2C4(C)C)c(O)c1`, for which the MIC in the series with Enterococcus faecium [1], in the series on Staphylococcus aureus [3], in the series with Staphylococcus aureus [4] and against Enterococcus faecium [5] was 1.3 µg/mL (≈ 2.67 µM) throughout.

For `COc1cc(C)c(-c2cc(O)cc3cc4c(c(O)c23)C(=O)c2c(cc(OC)c(Cl)c2O)C4(C)C)c(O)c1`, the MIC with Enterococcus faecium [1], against Staphylococcus aureus [3], in the series on Staphylococcus aureus [4] and in the series on Enterococcus faecium [5] was 2.5 µg/mL (≈ 4.8 µM) each time.

For `COc1cc(-c2c(O)cc(OC)c(Cc3c(OC)cc(O)c(-c4cc(OC)cc5cc6c(c(O)c45)C(=O)c4c(O)cc(O)cc4C6(C)C)c3C)c2C)c2c(O)c3c(cc2c1)C(C)(C)c1cc(O)cc(O)c1C3=O`, the IC50 was 17.2 µM in the series on MCF7, 15.8 µM in the series with HeLa, 5.7 µM in the series with A549 and 16.7 µM with HepG2. Also, the selectivity ratio in series [6] was 3. Further, the IC50 at 48 h in series [2] turned out to be 17.6 µM. Moreover, the MIC in the series with Staphylococcus aureus [3] is 2.5 µg/mL (≈ 2.54 µM); against Staphylococcus aureus [4], 2.5 µg/mL (≈ 2.54 µM); against Enterococcus faecium [5] it was more than 10 µg/mL.

The record behind these values is ChEMBL document CHEMBL5370670, “Anti-MRSA Dimeric and Brominated Phenyltetracenoids Produced by Streptomyces morookaense SC1169” (J Nat Prod, 2023).
